Where two headings read alike, the source gives them in different places.
Key:
Japanese pear “Kousui” [1] = test system: Japanese pear “Kousui”
Method: Regarding the sugar concentration of fruits, the sugar content (Brix) of the fruits harvested on August 24 of the year. The content of the individual sugar species was measured by selecting 10 fruits from each section to obtain fruit juices prepared by pressing the fruits, filtering each juice with a membrane filter having a 0.45 μm diameter, and then, quantifying the sugar content for every sugar species by HPLC (Column: “Shim-pack SCR-101C”, Column temperature: 80° C., Solvent: water (1 mL/min); and Detector: RI).

Japanese pear “Kousui” [2] = details: average Score (+3 to −3) of sprayed product, non-sprayed product = Score 0
Method: In this connection, the scores of the sprayed product shown in Table 5 were counted by the following way. I.e., this was carried out in a paired comparison method where the “non-sprayed product” was assigned to Score 0 (control), and the “sprayed product” was scored by 7-class evaluation consisting of Scores +3, +2, +1, 0, −1, −2, and −3, employing a plurality of panels. Next, average values of the results of scoring the “sprayed product” by the plurality of panels were calculated and the average values were assigned to the Scores of the “sprayed product” in Table 5.

[3] = test system: adult grape tree (cultivar Cabernet sauvignon)
Method: The aqueous proline solution, which had been prepared by dissolving the high purity proline as described above into water to provide a 200 ppm concentration and adding 10 mL of “ATLOX BI” (wetting agent) thereto, was sprayed on the adult grape tree (cultivar Cabernet sauvignon) with an interval of 15 days during the period from the end of June to the middle of September in a year, which is the véraison period as the fruit growing period.
The sprayed amount was a certain amount to allow the solution to drop down from the leaf surfaces. The control section was assigned to another non-sprayed adult tree. Both the test section and the control section were harvested on October 25 in that year to analyze sweetness and a red-colored state. Sweetness was evaluated in terms of the sugar content (Brix) of a juice prepared by mixing and pulverizing seed-removed fruits and pericarps. Colored state (red) was evaluated by measuring a light absorbance of the juice at 522 nm.
According to the market evaluation for a grape cultivar for red wine and a red grape cultivar such as Kyohou, the stronger the coloration (red) of the pericarp is, the better the quality is.

Japanese pear “Kousui” [4] = test system: Japanese pear “Kousui”; remark: listed apart in the source
Japanese pear “Kousui” [5] = details: observed on February 5
Method: The flower bud differentiation rate was surveyed by observing winter buds with the unaided eye for each of long fruiting branches and short fruiting branches for every section on February 5 of the next year. The flower bud differentiation rate was calculated as a proportion of the flower bud number (mixed flower buds) to the total winter bud number, provided that the last-year branch was regarded as 1 unit, to which branch a long fruiting branch or a short fruiting branch attached.

[6] = pear fruit juice, harvested on August 24, HPLC, n = 10
[7] = grape juice, harvested October 25, 200 ppm proline sprayed every 15 days

## O=C(O)[C@@H]1CCCN1 [proline, L-proline]
Japanese pear “Kousui” [1]; [6]
  Fructose content in the fruits: 56.74 mg/mL
  Glucose content in the fruits: 18.67 mg/mL
  Sorbitol content in the fruits: 28.83 mg/mL
  Sucrose content in the fruits: 62.09 mg/mL
  Total individual sugar contents in the fruits: 166.12 mg/mL
Japanese pear “Kousui” [1]; pear fruits harvested on August 24, 200 ppm proline sprayed
  Sugar content (Brix): 11.7 ± 0.1 Brix
Japanese pear “Kousui” [1]; pear fruits harvested on August 24, proline-treated section
  pericarp color: somewhat red pericarp
Japanese pear “Kousui” [2]
  Apparent color: 0.06
  Comprehensive evaluation: 0.74
  Hardness: −0.13
  Juiciness: 0.02
  Preferableness of sourness: −0.06
  Preferableness of sweetness: 0.43
  Preferableness of whole aroma: 0.64
  Preferableness of whole feeling upon eating: 0.31
  Preferableness of whole flavor: 0.50
  Preferableness of whole taste: 0.61
  Strength of sourness: −0.19
  Strength of sweetness: 0.95
  Strength of whole aroma: 0.26
  Strength of whole flavor: 0.57
  Strength of whole taste: 0.79
  Tongue feeling: −0.19
  Unripe flavor: −0.41
[3]; [7]
  Colored degree (OD at 522 nm): 0.14 OD at 522 nm
  Sugar content (Brix): 20.3 Brix
[3]; grape juice, proline-sprayed section vs control section
  increment of anthocyanin content in the juice: about 20%
[3]; grape, proline-sprayed section vs control section
  difference in the size of fruits: No difference
Japanese pear “Kousui” [4]; Japanese pear “Kousui”, 200 ppm proline sprayed on leaves
  drug damage caused by spraying: any drug damage caused by spraying has not been observed
Japanese pear “Kousui” [4]; Total of all fruit sizes, Total of harvest days, 200 ppm proline sprayed on leaves
  Harvested number of pears: 638
Japanese pear “Kousui” [4]; Total of all fruit sizes, harvest day August 18, 200 ppm proline sprayed on leaves
  Harvested number of pears: 130
Japanese pear “Kousui” [4]; Total of all fruit sizes, harvest day August 21, 200 ppm proline sprayed on leaves
  Harvested number of pears: 185
Japanese pear “Kousui” [4]; Total of all fruit sizes, harvest day August 24, 200 ppm proline sprayed on leaves
  Harvested number of pears: 323
Japanese pear “Kousui” [4]; fruit size 2L, Total of harvest days, 200 ppm proline sprayed on leaves
  Harvested number of pears: 115
Japanese pear “Kousui” [4]; fruit size 2L, harvest day August 18, 200 ppm proline sprayed on leaves
  Harvested number of pears: 33
Japanese pear “Kousui” [4]; fruit size 2L, harvest day August 21, 200 ppm proline sprayed on leaves
  Harvested number of pears: 46
Japanese pear “Kousui” [4]; fruit size 2L, harvest day August 24, 200 ppm proline sprayed on leaves
  Harvested number of pears: 36
Japanese pear “Kousui” [4]; fruit size 3L, Total of harvest days, 200 ppm proline sprayed on leaves
  Harvested number of pears: 233
Japanese pear “Kousui” [4]; fruit size 3L, harvest day August 18, 200 ppm proline sprayed on leaves
  Harvested number of pears: 46
Japanese pear “Kousui” [4]; fruit size 3L, harvest day August 21, 200 ppm proline sprayed on leaves
  Harvested number of pears: 64
Japanese pear “Kousui” [4]; fruit size 3L, harvest day August 24, 200 ppm proline sprayed on leaves
  Harvested number of pears: 123
Japanese pear “Kousui” [4]; fruit size 4L, Total of harvest days, 200 ppm proline sprayed on leaves
  Harvested number of pears: 160
Japanese pear “Kousui” [4]; fruit size 4L, harvest day August 18, 200 ppm proline sprayed on leaves
  Harvested number of pears: 25
Japanese pear “Kousui” [4]; fruit size 4L, harvest day August 21, 200 ppm proline sprayed on leaves
  Harvested number of pears: 32
Japanese pear “Kousui” [4]; fruit size 4L, harvest day August 24, 200 ppm proline sprayed on leaves
  Harvested number of pears: 103
Japanese pear “Kousui” [4]; fruit size 5L, Total of harvest days, 200 ppm proline sprayed on leaves
  Harvested number of pears: 31
Japanese pear “Kousui” [4]; fruit size 5L, harvest day August 18, 200 ppm proline sprayed on leaves
  Harvested number of pears: 0
Japanese pear “Kousui” [4]; fruit size 5L, harvest day August 21, 200 ppm proline sprayed on leaves
  Harvested number of pears: 4
Japanese pear “Kousui” [4]; fruit size 5L, harvest day August 24, 200 ppm proline sprayed on leaves
  Harvested number of pears: 27
Japanese pear “Kousui” [4]; fruit size L, Total of harvest days, 200 ppm proline sprayed on leaves
  Harvested number of pears: 55
Japanese pear “Kousui” [4]; fruit size L, harvest day August 18, 200 ppm proline sprayed on leaves
  Harvested number of pears: 19
Japanese pear “Kousui” [4]; fruit size L, harvest day August 21, 200 ppm proline sprayed on leaves
  Harvested number of pears: 18
Japanese pear “Kousui” [4]; fruit size L, harvest day August 24, 200 ppm proline sprayed on leaves
  Harvested number of pears: 18
Japanese pear “Kousui” [4]; fruit size M, Total of harvest days, 200 ppm proline sprayed on leaves
  Harvested number of pears: 20
Japanese pear “Kousui” [4]; fruit size M, harvest day August 18, 200 ppm proline sprayed on leaves
  Harvested number of pears: 0
Japanese pear “Kousui” [4]; fruit size M, harvest day August 21, 200 ppm proline sprayed on leaves
  Harvested number of pears: 11
Japanese pear “Kousui” [4]; fruit size M, harvest day August 24, 200 ppm proline sprayed on leaves
  Harvested number of pears: 9
Japanese pear “Kousui” [4]; fruit size S, Total of harvest days, 200 ppm proline sprayed on leaves
  Harvested number of pears: 24
Japanese pear “Kousui” [4]; fruit size S, harvest day August 18, 200 ppm proline sprayed on leaves
  Harvested number of pears: 7
Japanese pear “Kousui” [4]; fruit size S, harvest day August 21, 200 ppm proline sprayed on leaves
  Harvested number of pears: 10
Japanese pear “Kousui” [4]; fruit size S, harvest day August 24, 200 ppm proline sprayed on leaves
  Harvested number of pears: 7
Japanese pear “Kousui” [4]; proline-treated section vs control section
  ripening of fruits (fruit number for every harvest day): fruits ripened earlier as a tendency
Japanese pear “Kousui” [5]; long fruiting branch, Total
  flower bud differentiation rate: 39.83%
Japanese pear “Kousui” [5]; long fruiting branch, Tree No. 1
  flower bud differentiation rate: 40.60%
Japanese pear “Kousui” [5]; long fruiting branch, Tree No. 2
  flower bud differentiation rate: 39.05%
Japanese pear “Kousui” [5]; short fruiting branch, Total
  flower bud differentiation rate: 39.38%
Japanese pear “Kousui” [5]; short fruiting branch, Tree No. 1
  flower bud differentiation rate: 40.83%
Japanese pear “Kousui” [5]; short fruiting branch, Tree No. 2
  flower bud differentiation rate: 37.93%
